Test results as given in patent US20250304535A1, “KAT6 Inhibitors” (BeiGene Switzerland GmbH, priority 2024, published 2025).

What was measured:
[1] = target: Recombinant human KAT6A protein (497-780) (Homo sapiens (Human), UniProt Q92794); assay: KAT6A biochemical TR-FRET assay; conditions: histone H4 peptide 2000 nM, AcCoA 300 nM, enzyme 5 nM
[2] = target: Recombinant human KAT6B protein (657-1069) (Homo sapiens (Human), UniProt Q8WYB5); assay: KAT6B biochemical TR-FRET assay; conditions: histone H4 peptide 1000 nM, AcCoA 100 nM, enzyme 5 nM
[3] = system: histone H3K23 acetylation in U-2 OS cells; assay: Histone H3 lysine 23 acetylation assay in U-2 OS cells (high content analysis); format: cell-based; conditions: Homo sapiens, U2OS, 24 hrs exposure, H3K23ac level
Outline: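 U-2 OS cells seeded overnight, then exposed 24 h to a 9-point compound dilution series; 0.1% DMSO medium as blank. Fixed, permeabilised, stained with anti-H3K23ac plus Alexa Fluor 647 secondary and DAPI; nuclear H3K23ac intensity read by high-content imaging. Inhibition = mean per-well cell intensity relative to on-plate blanks.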

Sequence of Recombinant human KAT6B protein (657-1069) (Q8WYB5 657-1069): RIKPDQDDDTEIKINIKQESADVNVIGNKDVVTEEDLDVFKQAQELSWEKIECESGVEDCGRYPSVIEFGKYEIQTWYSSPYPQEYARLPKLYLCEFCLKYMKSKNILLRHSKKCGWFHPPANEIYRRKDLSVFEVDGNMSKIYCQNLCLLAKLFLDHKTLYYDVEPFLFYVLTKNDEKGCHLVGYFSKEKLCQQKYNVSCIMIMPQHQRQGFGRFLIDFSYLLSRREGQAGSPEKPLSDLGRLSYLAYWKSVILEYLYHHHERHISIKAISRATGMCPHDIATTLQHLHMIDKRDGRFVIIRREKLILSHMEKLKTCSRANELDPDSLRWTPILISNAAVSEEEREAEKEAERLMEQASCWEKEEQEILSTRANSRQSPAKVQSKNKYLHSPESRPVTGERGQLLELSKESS
Sequence of Recombinant human KAT6A protein (497-780) (Q92794 497-780): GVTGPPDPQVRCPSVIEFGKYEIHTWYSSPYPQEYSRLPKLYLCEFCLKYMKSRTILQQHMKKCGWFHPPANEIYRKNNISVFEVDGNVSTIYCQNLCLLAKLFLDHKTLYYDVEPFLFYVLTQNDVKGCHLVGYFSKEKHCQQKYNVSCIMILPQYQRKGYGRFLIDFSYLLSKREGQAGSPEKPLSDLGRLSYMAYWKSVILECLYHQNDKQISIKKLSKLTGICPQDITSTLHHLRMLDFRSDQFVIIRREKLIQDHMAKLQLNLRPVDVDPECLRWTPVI

CCc1nc(C(=O)NS(=O)(=O)c2c(OC)ccc3c2OCC3(C)C)ccc1Cn1cccn1 [Example C53, 5-((1H-pyrazol-1-yl)methyl)-6-ethyl-N-((6-methoxy-3,3-dimethyl-2,3-dihydrobenzofuran-7-yl)sulfonyl)picolinamide]
IC50 [1]: ≤ 5 nM
IC50 [2]: ≤ 5 nM
IC50 [3]: ≤ 10 nM

COc1ccc(C(C)(C)C(F)(F)F)nc1S(=O)(=O)NC(=O)c1ccc(Cn2cccn2)c(OC)n1 [Example C54, 5-((1H-pyrazol-1-yl)methyl)-6-methoxy-N-((3-methoxy-6-(1,1,1-trifluoro-2-methylpropan-2-yl)pyridin-2-yl)sulfonyl)picolinamide]
IC50 [1]: ≤ 5 nM
IC50 [2]: ≤ 5 nM
IC50 [3]: ≤ 10 nM

COc1ccc2c(c1S(=O)(=O)NC(=O)c1ccc(Cn3cccn3)c(OC)n1)OCC(C)(C)C2 [Example C55, 5-((1H-pyrazol-1-yl)methyl)-6-methoxy-N-((7-methoxy-3,3-dimethylchroman-8-yl)sulfonyl)picolinamide]
IC50 [1]: ≤ 5 nM
IC50 [2]: ≤ 5 nM
IC50 [3]: ≤ 10 nM

COc1ccc(C2(OC)CC2)cc1S(=O)(=O)NC(=O)c1ccc(Cn2cccn2)c(OC)n1 [Example C56, 5-((1H-pyrazol-1-yl)methyl)-6-methoxy-N-((2-methoxy-5-(1-methoxycyclopropyl)phenyl)sulfonyl)picolinamide]
IC50 [1]: ≤ 5 nM
IC50 [2]: ≤ 5 nM
IC50 [3]: ≤ 10 nM

COCC(C)(C)c1ccc(OC)c(S(=O)(=O)NC(=O)c2ccc(Cn3cccn3)c(OC)n2)c1 [Example C57, 5-((1H-pyrazol-1-yl)methyl)-6-methoxy-N-((2-methoxy-5-(1-methoxy-2-methylpropan-2-yl)phenyl)sulfonyl)picolinamide]
IC50 [1]: ≤ 5 nM
IC50 [2]: ≤ 5 nM
IC50 [3]: ≤ 10 nM

COc1ccc2c(c1S(=O)(=O)NC(=O)c1ccc(Cn3cccn3)c(OC)n1)OCC2 [Example C58, 5-((1H-pyrazol-1-yl)methyl)-6-methoxy-N-((6-methoxy-2,3-dihydrobenzofuran-7-yl)sulfonyl)picolinamide]
IC50 [1]: ≤ 5 nM
IC50 [2]: ≤ 5 nM
IC50 [3]: ≤ 10 nM

COc1ccc(C2(C(F)(F)F)CC2)cc1S(=O)(=O)NC(=O)c1ccc(Cn2cccn2)c(OC)n1 [Example C59, 5-((1H-pyrazol-1-yl)methyl)-6-methoxy-N-((2-methoxy-5-(1-(trifluoromethyl)cyclopropyl)phenyl)sulfonyl)picolinamide]
IC50 [1]: ≤ 5 nM
IC50 [2]: ≤ 5 nM
IC50 [3]: ≤ 10 nM

COc1ccc2c(c1S(=O)(=O)NC(=O)c1ccc(Cn3cccn3)c(OC)n1)OCC21CCC1 [Example C60, 5-((1H-pyrazol-1-yl)methyl)-6-methoxy-N-((6-methoxy-2H-spiro[benzofuran-3,1′-cyclobutan]-7-yl)sulfonyl)picolinamide]
IC50 [1]: ≤ 5 nM
IC50 [2]: ≤ 5 nM
IC50 [3]: ≤ 10 nM

COc1cc2c(cc1S(=O)(=O)NC(=O)c1ccc(Cn3cccn3)c(OC)n1)C(C)(C)CO2 [Example C61, 5-((1H-pyrazol-1-yl)methyl)-6-methoxy-N-((6-methoxy-3,3-dimethyl-2,3-dihydrobenzofuran-5-yl)sulfonyl)picolinamide]
IC50 [1]: ≤ 5 nM
IC50 [2]: ≤ 5 nM
IC50 [3]: ≤ 10 nM

COc1ccc(N2CC3CCC(C2)O3)cc1S(=O)(=O)NC(=O)c1ccc(Cn2cccn2)c(OC)n1 [Example C62, 5-((1H-pyrazol-1-yl)methyl)-N-((5-(8-oxa-3-azabicyclo[3.2.1]octan-3-yl)-2-methoxyphenyl)sulfonyl)-6-methoxy-picolinamide]
IC50 [1]: ≤ 5 nM
IC50 [2]: ≤ 5 nM
IC50 [3]: ≤ 10 nM

[2H]C([2H])([2H])Oc1nc(C(=O)NS(=O)(=O)c2nc(C(C)(C)C)ccc2OC)ccc1Cn1cccn1 [Example C63, 5-((1H-pyrazol-1-yl)methyl)-N-((6-(tert-butyl)-3-methoxypyridin-2-yl)sulfonyl)-6-(methoxy-d3)picolinamide]
IC50 [1]: ≤ 5 nM
IC50 [2]: ≤ 5 nM
IC50 [3]: ≤ 10 nM

[2H]C([2H])([2H])Oc1nc(C(=O)NS(=O)(=O)c2c(OC)ccc3c2OCC3(C)C)ccc1Cn1cccn1 [Example C64, 5-((1H-pyrazol-1-yl)methyl)-6-(methoxy-d3)-N-((6-methoxy-3,3-dimethyl-2,3-dihydrobenzofuran-7-yl)sulfonyl) picolinamide]
IC50 [1]: ≤ 5 nM
IC50 [2]: ≤ 5 nM
IC50 [3]: ≤ 10 nM

[2H]C([2H])([2H])Oc1nc(C(=O)NS(=O)(=O)c2c(OC)ccc3c2OC(C)(C)C3)ccc1Cn1cccn1 [Example C65, 5-((1H-pyrazol-1-yl)methyl)-6-(methoxy-d3)-N-((6-methoxy-2,2-dimethyl-2,3-dihydrobenzofuran-7-yl)sulfonyl) picolinamide]
IC50 [1]: ≤ 5 nM
IC50 [2]: ≤ 5 nM
IC50 [3]: ≤ 10 nM

[2H]C([2H])([2H])Oc1ccc(C(C)(C)C)nc1S(=O)(=O)NC(=O)c1ccc(Cn2cccn2)c(OC)n1 [Example C66, 5-((1H-pyrazol-1-yl)methyl)-N-((6-(tert-butyl)-3-(methoxy-d3)pyridin-2-yl)sulfonyl)-6-methoxy-picolinamide]
IC50 [1]: ≤ 5 nM
IC50 [2]: ≤ 5 nM
IC50 [3]: ≤ 10 nM

COc1ccc(C2(OC)COC2)cc1S(=O)(=O)NC(=O)c1ccc(Cn2cccn2)c(OC)n1 [Example C67, 5-((1H-pyrazol-1-yl)methyl)-6-methoxy-N-((2-methoxy-5-(3-methoxyoxetan-3-yl)phenyl)sulfonyl) picolinamide]
IC50 [1]: ≤ 5 nM
IC50 [2]: ≤ 5 nM
IC50 [3]: ≤ 10 nM

COc1ccccc1S(=O)(=O)NC(=O)c1ccc(Cn2cccn2)c(OC)n1 [Example C68, 5-((1H-pyrazol-1-yl)methyl)-6-methoxy-N-((2-methoxyphenyl)sulfonyl) picolinamide]
IC50 [1]: 5 to 50 nM
IC50 [2]: ≤ 5 nM
IC50 [3]: ≤ 10 nM

COc1ccc(C2(C)CCOCC2)cc1S(=O)(=O)NC(=O)c1ccc(Cn2cccn2)c(OC)n1 [Example C70, 5-((1H-pyrazol-1-yl)methyl)-6-methoxy-N-((2-methoxy-5-(4-methyltetrahydro-2H-pyran-4-yl)phenyl)sulfonyl) picolinamide]
IC50 [1]: ≤ 5 nM
IC50 [2]: ≤ 5 nM
IC50 [3]: ≤ 10 nM

COc1ccc2c(c1S(=O)(=O)NC(=O)c1ccc(Cn3cccn3)c(OC)n1)OCC21CCOCC1 [Example C71, 5-((1H-pyrazol-1-yl)methyl)-6-methoxy-N-((6-methoxy-2′,3′,5′,6′-tetrahydro-2H-spiro[benzofuran-3,4′-pyran]-7-yl)sulfonyl) picolinamide]
IC50 [1]: ≤ 5 nM
IC50 [2]: ≤ 5 nM
IC50 [3]: ≤ 10 nM

COc1cnc(C(C)(C)C)cc1S(=O)(=O)NC(=O)c1ccc(Cn2cccn2)c(OC)n1 [Example C72, 5-((1H-pyrazol-1-yl)methyl)-N-((2-(tert-butyl)-5-methoxypyridin-4-yl)sulfonyl)-6-methoxy-picolinamide]
IC50 [1]: ≤ 5 nM
IC50 [2]: ≤ 5 nM
IC50 [3]: ≤ 10 nM

COc1ccc(C2COCCN2C)cc1S(=O)(=O)NC(=O)c1ccc(Cn2cccn2)c(OC)n1 (stereo not drawn) [Example C73, 5-((1H-pyrazol-1-yl)methyl)-6-methoxy-N-((2-methoxy-5-(4-methylmorpholin-3-yl)phenyl)sulfonyl) picolinamide]
IC50 [1]: ≤ 5 nM
IC50 [2]: ≤ 5 nM
IC50 [3]: ≤ 10 nM
